Experimental data reported in patent US8617872B2, “Compositions for culturing spirochetes” (priority 2000, dated 2013).

Key:
Type in all cases: cell-based
[1] = system: Treponema isolate; experiment: Antimicrobial susceptibility test (MICROSCAN plates) of a patient's Treponema isolate; conditions: Treponema infected patient's isolate; MICROSCAN plates, 35° C., 16-20 hours
Experimental: For susceptibility testing, the organisms harvested could be assayed using any suitable susceptibility assay (See, Example 7). In some embodiments of the present invention, MICROSCAN antibiotic susceptibility plates were inoculated and incubated. Following incubations, plates were scanned for growth and respective sensitivity reaction. […] For the results to be considered reliable, the no growth of organisms was accepted in the negative control well, while the positive control well had to have sufficient growth to be read. In some embodiments of the present invention, to confirm the presence or absence of growing spirochetes in the growth well, aliquots from the growth well were reinoculated with fresh growth media and after an incubation time (e.g., 7-10 days) the presence of the organisms was confirmed (e.g., by phase contrast microscopy or direct fluorescent antibody staining).
(§1) This example describes the preparation of a pellet used for antimicrobial susceptibility testing of a culture sample. The procedure begins with a culture (e.g., prepared in the manner described in Example 2), where serum from a patient is inoculated in GSI-1 media and allowed to grow. In order to form pellet, an aliquot of this culture sample is placed in a microcentrifuge tube along with 10% SDS solution, and centrifuged at 14,000 g to disrupt the spirochetes and maximize the number of available eptiopic sites. The disrupted spirochetes were then cultured in an alternative growth medium made up of one part GSI-1 medium, one part 6.5% lactalbumin hydrolysate, one part 2% brain heart infusion, one part 10% pluronic fluid, and one part of the isolated (disrupted) spirochetes. This inoculated alternative growth medium was then allowed to incubate in the closed micro centrifuge tube until a distinctive pellet was observed (typically 7-14 days).
This example describes an antimicrobial susceptibility test performed for a human patient. The patient had previously been testing using GSI-1 medium (e.g., as described in Example 2) for the presence of any spirochetes. […] This culture sample was then transferred to a microcentrifuge tube, and a pellet for antimicrobial susceptibility testing was prepared as described in Example 6.
(§2) Following the observation of pellet formation, the tube was vortexed and incubated at 35° C. until a MacFarlane standard of between 8 to 12% turbidity was achieved. MICROSCAN antibiotic susceptibility microtiter plates were then inoculated with (e.g., 110 μl of) inoculum and allowed to incubate at 35° C. for 16-20 hours. The microtiter plates were then scanned for growth and respective sensitivity reaction (both the control well and the growth well). Table 2 below lists the various antimicrobials tested with this sample and whether growth of the organism was inhibited (susceptible) or whether the growth of the organism was not inhibited (resistant).

[2] = system: E. coli; experiment: Antibiotic susceptibility test (MICROSCAN or disc diffusion), control organism E. coli; conditions: total isolates 1
[3] = system: Tatumella; experiment: Antibiotic susceptibility test (MICROSCAN or disc diffusion), control organism Tatumella; conditions: total isolates 2
Description: as §1, §2
(§3) This Example describes the results for susceptibility tests that were performed on a large number of patient samples positive for either Borrelia or Leptospira. […] The results presented in Table 3 reveal the varied response of different types of spirochetes to different antibiotics.

[4] = system: Y. entero gp.; experiment: Antibiotic susceptibility test (MICROSCAN or disc diffusion), control organism Y. entero gp.; conditions: total isolates 1
[5] = system: Borrelia; experiment: Antibiotic susceptibility test (MICROSCAN or disc diffusion) of patient samples positive for Borrelia; conditions: total isolates 519
Description: as §1, §2, §3

[6] = system: Leptospira; experiment: Antibiotic susceptibility test (MICROSCAN or disc diffusion) of patient samples positive for Leptospira; conditions: total isolates 276
Description: as §1, §2, §3

[7] = system: A. lwoffii; experiment: Antibiotic susceptibility test (MICROSCAN or disc diffusion), control organism A. lwoffii; conditions: total isolates 1
[8] = system: Pseudomonas; experiment: Antibiotic susceptibility test (MICROSCAN or disc diffusion), control organism Pseudomonas; conditions: total isolates 1
[9] = system: Leptospira; experiment: Susceptibility testing of Leptospira isolated from a patient with symptoms of multiple sclerosis; conditions: for Antibiotic Susceptibility Results, SERUM: Leptospira culture from serum of multiple sclerosis patient; for Antibiotic Susceptibility Results, URINE: Leptospira culture from urine of multiple sclerosis patient
Experimental: This example describes the preparation of a pellet used for antimicrobial susceptibility testing of a culture sample. […] In order to form pellet, an aliquot of this culture sample is placed in a microcentrifuge tube along with 10% SDS solution, and centrifuged at 14,000 g to disrupt the spirochetes and maximize the number of available eptiopic sites. […] This inoculated alternative growth medium was then allowed to incubate in the closed micro centrifuge tube until a distinctive pellet was observed (typically 7-14 days).
MICROSCAN antibiotic susceptibility microtiter plates were then inoculated with (e.g., 110 μl of) inoculum and allowed to incubate at 35° C. for 16-20 hours. The microtiter plates were then scanned for growth and respective sensitivity reaction (both the control well and the growth well).

[10] = system: Leptospira; experiment: Susceptibility testing of Leptospira isolated from a patient with symptoms of rheumatoid arthritis; conditions: for Antibiotic Susceptibility Results, SERUM: Leptospira culture from serum of rheumatoid arthritis patient; for Antibiotic Susceptibility Results, URINE: Leptospira culture from urine of rheumatoid arthritis patient
Description: as §1
as §2, with “well).” for “well). Table 2 below lists the various antimicrobials tested with this sample and whether growth of the organism was inhibited (susceptible) or whether the growth of the organism was not inhibited (resistant).”
This Example describes the diagnosis and treatment of a human patient with symptoms of rheumatoid arthritis. In particular, serum and urine samples from this patient were initially cultured on GSI-1 (e.g., as described in Example 2), and screened for the presence of spirochetes (e.g., as described in Example 3). […] These cultures were then used to produce pellets for antimicrobial susceptibility testing (e.g., as described in Example 6). The antimicrobial susceptibility tests were then carried out on each sample (e.g., as described in Example 7) with the antimicrobials listed below in Table 5.

Compound | RESULT (antibiotic susceptibility) [1] | Antibiotic Susceptibility Test Results, E. coli [2] [%] | Antibiotic Susceptibility Test Results, Tatumella [3] [%] | Antibiotic Susceptibility Test Results, Y. entero gp. [4] [%] | Antibiotic Susceptibility Test Results, Borrelia [5] [%] | Antibiotic Susceptibility Test Results, Leptospira [6] [%] | Antibiotic Susceptibility Test Results, A. lwoffii [7] [%] | Antibiotic Susceptibility Test Results, Pseudomonas [8] [%] | Antibiotic Susceptibility Results, SERUM [9] | Antibiotic Susceptibility Results, URINE [9] | Antibiotic Susceptibility Results, SERUM [10] | Antibiotic Susceptibility Results, URINE [10]
Ticarcillin/Clavulanate | Susceptible | 100 | 100 | 100 | 79 | 75 | 100 | 100 | Resistant | Resistant | Resistant | Resistant
CO/N=C(\C(=O)N[C@@H]1C(=O)N2C(C(=O)O)=C(COC(C)=O)CS[C@H]12)c1csc(N)n1 [Cefotaxime] |  | 100 | 0 | 100 | 60 | 64 | 100 | 100 | Resistant | Resistant | Resistant | Resistant
CC(C)(O/N=C(\C(=O)N[C@@H]1C(=O)N2C(C(=O)[O-])=C(C[n+]3ccccc3)CS[C@H]12)c1csc(N)n1)C(=O)O [Ceftazidime] |  | 100 | 0 | 100 | 36 | 41 | 100 | 100 | Resistant | Resistant | Resistant | Resistant
C[C@@H](O)[C@H]1C(=O)N2C(C(=O)O)=C(S[C@@H]3CN[C@H](C(=O)N(C)C)C3)[C@H](C)[C@H]12 [Meropenem] | Resistant | 100 | 100 | 100 | 82 | 75 | 100 | 100 | Resistant | Resistant | Resistant | Resistant
O=C(O)c1cn(C2CC2)c2cc(N3CCNCC3)c(F)cc2c1=O [Ciprofloxacin] | Resistant | 100 | 100 | 100 | 84 | 78 | 100 | 100 | Susceptible | Susceptible | Susceptible | Susceptible
